Assay results: paper PMC6033213, “Structurally simple synthetic 1, 4-disubstituted piperidines with high selectivity for resistant Plasmodium falciparum” (BMC Pharmacology & Toxicology, 2018)
Values after ≈ are worked out from the molar mass of the structure shown. Like-named read-outs stand apart in the source and are kept apart here.

Assays:
[1] = tested on: P. falciparum 3D7; assay: Secondary screen: parasite growth inhibition by parasite lactate dehydrogenase (pLDH) assay, 3D7; assay type: cell-based, Plasmodium falciparum; design: key to Antiplasmodial activity class on 3D7: active, IC50 < 5 μg/mL; moderately active: 5 μg/mL ≤ IC50 ≤ 10 μg/mL; weakly active: IC50 ≥ 10 μg/mL
Source text: (§1) Two Plasmodium falciparum parasite strains were obtained from MR4 (Manassas, Virginia, USA) and stored in liquid nitrogen. The 3D7 (MRA-102) strain is chloroquine- sensitive while Dd2 is a multidrug resistant clone of the W2 strain with resistance to chloroquine, quinine, mefloquine, sulfadoxine and pyrimethamine. Parasite stocks were thawed, grown and maintained in continuous culture by the candle jar technique with some modifications. The culture consisted of 4% hematocrit suspension of human O+ erythrocytes in RPMI-1640 medium (10.43 g/L supplemented with 0.01 mg/mL gentamycin, 25 mM Hepes buffer, 25 mM NaHCO3) and 5 g Albumax II. All culture reagents were obtained from Sigma-Aldrich Inc. (Germany) except for Albumax II (Gibco; Invitrogen, USA). Cultures were incubated at 37 °C in 5% CO2.
(§2) After incubation the plate was frozen at − 20 °C for the parasite lactate dehydrogenase (pLDH) assay.
(§3) The reagent preparation and assay were done as described. The plates were subjected to 3 freeze-thaw cycles to haemolyze the red blood cells. One hundred microlitre (100 μL) of Malstat reagent was added to each required well of a fresh microtitre plate followed by 20 μL of culture. Then 25 μL of nitroblue tetrazolium/phenazine ethosulfate (NBT/PES) solution was added initiating the reaction. The plates were then incubated for an hour in the dark and optical density (OD) measured at 650 nm (Emax-Molecular Devices Corporation, California, USA).
(§4) For the parasite lactate dehydrogenase assay, the background OD of blank wells containing non parasitized red blood cells was subtracted from values of all test wells. OD values from control wells void of test compound represented the maximum pLDH activity. The OD values obtained were used to determine the IC50, and IC90 values using the software IC Method IC Estimator V1.2 [18], an online calculator of IC values. Each assay was done twice in duplicates and the 4 IC50 or CC50 values obtained were pooled together and expressed as mean IC ± S.D.

[2] = tested on: P. falciparum Dd2; assay: Secondary screen: parasite growth inhibition by parasite lactate dehydrogenase (pLDH) assay, Dd2; assay type: cell-based, Plasmodium falciparum; design: key to Antiplasmodial activity class on Dd2: active, IC50 < 5 μg/mL; moderately active: 5 μg/mL ≤ IC50 ≤ 10 μg/mL; weakly active: IC50 ≥ 10 μg/mL
Source text: as §1, §2, §3, §4

[3] = tested on: P. falciparum Dd2; assay: Primary screen: in vitro parasite growth inhibition at a single concentration, fluorescence microscopy with acridine orange; assay type: cell-based, Plasmodium falciparum; conditions: 40 μg/mL, 48 h, Dd2 chloroquine-resistant strain; for inhibition at 40 µg/mL: Plasmodium falciparum
Source text: as §1
A primary screen for antiplasmodial activity at a single concentration was performed against Dd2 as described with some modifications, to identify active compounds. Stock solutions of compound (1 mg/mL) was initially dissolved in dimethylsulfoxide (DMSO), then gentamycin-free incomplete medium (without Albumax II) added giving 2% final DMSO; the solutions were sterilized and stored. The positive control solutions (artemether and quinine at 5 μg/mL) were prepared similarly. The compounds were tested at a final concentration of 40 μg/mL in duplicate in a 96 well microtitre plate (100 μL per well), followed by 100 μL of 1% parasitized blood. Positive and negative controls (no drug) were included. The plate was incubated under the same culture conditions as above for 48 h and antiplasmodial activity determined by fluorescence microscopy (Leitz Wetzlar, Germany) with acridine orange stain at × 40 magnification under oil immersion. The number of infected erythrocytes (Ei) was counted in 20 monolayer fields (approximately 1500 cells per field) and the percentage parasitaemia was calculated using the formula:1 %parasitaemia=∑Ei/30,000×100
The percentage inhibition per concentration was then obtained using the formula below:2 percentage%inhibition=%parasitaemia of control well‐%parasitaemia of test well/%parasitaemia of control well×100

[4] = Cytotoxicity test, MTT/formazan assay; assay type: cell-based, monkey; conditions: monkey, LLC-MK2 monkey kidney epithelial cells; LLC-MK2 cells, 72 h, MTT/formazan
Procedure: (§5) This was done on monkey kidney epithelial cells, LLC-MK2, (ATCC, USA) as described except for use of same culture medium and conditions for P falciparum above. The cells, 10,000 in 100 μL medium per well, were cultured for 24 h to become confluent and attached to the bottom of the well and the medium replaced with 100 μL of fresh medium. […] A negative control without test substance was included. The plates were incubated for 72 h at 37 °C in 5% CO2 and cell viability were determined using microscopy to observe dead cells which appeared dark and deformed. This was followed by the MTT/formazan assay as described above with slight modification. The CC50 values (50% cytotoxic concentration) for each compound was obtained using Microsoft excel 2007. The selectivity index (SI) was calculated using the formula:3 SI=CC50onLLC‐MK2cells/IC50onP.falciparum
as §4

[5] = tested on: LLC-MK2 monkey kidney epithelial cells; assay: Cytotoxicity test, MTT/formazan assay; assay type: cell-based; conditions: for SI on 3D7: CC50 on LLC-MK2 cells/IC50 on P. falciparum 3D7; for SI on Dd2: CC50 on LLC-MK2 cells/IC50 on P. falciparum Dd2; for Mean SI: mean of the Selectivity Indices of the 3D7 and Dd2 parasite strains
Procedure: as §5, §4

[6] = Plasmodium falciparum, 3D7 chloroquine-sensitive strain, pLDH assay, mean ± S.D., read-out: IC50
[7] = Plasmodium falciparum, Dd2 chloroquine-resistant strain, pLDH assay, mean ± S.D., read-out: IC50
[8] = Plasmodium falciparum, Dd2 chloroquine-resistant strain, pLDH assay, mean ± S.D., read-out: IC90
[9] = Plasmodium falciparum, 3D7 chloroquine-sensitive strain, pLDH assay, mean ± S.D., read-out: IC90
[10] = Plasmodium falciparum, 3D7 strain, class by IC50, read-out: Antiplasmodial activity class on 3D7
[11] = Plasmodium falciparum, Dd2 strain, class by IC50, read-out: Antiplasmodial activity class on Dd2
[12] = 3D7 chloroquine-sensitive strain, pLDH assay, mean ± S.D.
[13] = Dd2 chloroquine-resistant strain, pLDH assay, mean ± S.D.

Molecule	IC50 [1, 6]	IC50 [2, 7]	IC90 [2, 8]	inhibition at 40 µg/mL [3]	IC90 [1, 9]	IC50 [1, 10]	IC50 [2, 11]	CC50 at 72 h [4]	SI on 3D7 [5]	SI on Dd2 [5]	Mean SI [5]	Antiplasmodial activity class on 3D7 ([1]; 3D7 strain, class by IC50)	Antiplasmodial activity class on Dd2 ([2]; Dd2 strain, class by IC50)	Inhibition (%) of P. falciparum Dd2 growth [3]	IC50 [1, 12]	IC90 [1, 12]	IC50 [2, 13]	IC90 [2, 13]
CO[C@H]1O[C@@H]2O[C@@]3(C)CC[C@H]4[C@H](C)CC[C@@H]([C@H]1C)[C@@]24OO3 [Art, artemether, reference compound]	0.045 µg/mL (≈ 0.151 µM)	0.039 µg/mL (≈ 0.131 µM)	0.046 µg/mL (≈ 0.154 µM)	–	–	–	–	–	–	–	–	–	–	–	–	–	–	–
O=C(c1ccc(F)cc1)C1CCN(Cc2ccc(F)cc2)CC1 [Compound 1, [1-(4-fluorobenzyl)piperidin-4-yl] [4-fluorophenyl] methanone]	8.45 ± 2.11 µg/mL (≈ 26.8 µM)	5.69 ± 2.38 µg/mL (≈ 18 µM)	27.6 ± 0.78 µg/mL (≈ 87.5 µM)	83.2%	17.9 ± 0.18 µg/mL (≈ 56.6 µM)	5 to 10 µg/mL (≈ 15.9 to 31.7 µM)	5 to 10 µg/mL (≈ 15.9 to 31.7 µM)	188 µg/mL (≈ 595 µM)	22.17	32.91	27.54 ± 7.59	–	–	–	–	–	–	–
O=C(c1ccc(F)cc1)C1CCN(Cc2ccc(Cl)c(Cl)c2)CC1 [Compound 2, [1-(3,4-dichlorobenzyl)piperidin-4-yl] [4-fluorophenyl] methanone]	4.3 ± 3.75 µg/mL (≈ 11.7 µM)	5.97 ± 0.02 µg/mL (≈ 16.3 µM)	24.9 ± 4.14 µg/mL (≈ 67.9 µM)	82.7%	17.61 ± 0.06 µg/mL (≈ 48.1 µM)	–	5 to 10 µg/mL (≈ 13.7 to 27.3 µM)	188 µg/mL (≈ 512 µM)	43.51	31.37	37.44 ± 8.58	active	–	–	–	–	–	–
O=C(c1ccc(F)cc1)C1CCN(Cc2ccc(Cl)cc2)CC1 [Compound 3, [1-(4-chlorobenzyl)piperidin-4-yl] [4-fluorophenyl] methanone]	3.21 ± 0.21 µg/mL (≈ 9.67 µM)	4.12 ± 1.28 µg/mL (≈ 12.4 µM)	32.4 ± 0.67 µg/mL (≈ 97.6 µM)	56.6%	17.9 ± 2.39 µg/mL (≈ 53.9 µM)	–	–	62.5 µg/mL (≈ 188 µM)	–	–	17.31 ± 3.0	active	active	–	–	–	–	–
O=C(c1ccc(F)cc1)C1CCN(Cc2ccccc2[N+](=O)[O-])CC1 [Compound 4, [1-(2-nitrobenzyl)piperidin-4-yl] [4-fluorophenyl] methanone]	–	–	–	27.7%	–	–	–	–	–	–	–	–	–	poor inhibition	–	–	–	–
O=C(c1ccc(F)cc1)C1CCN(Cc2ccc(Br)cc2)CC1 [Compound 5, [1-(4-bromobenzyl)piperidin-4-yl] [4-fluorophenyl] methanone]	10 ± 0.3 µg/mL (≈ 26.6 µM)	14.5 ± 1.34 µg/mL (≈ 38.6 µM)	32.3 ± 4.17 µg/mL (≈ 85.9 µM)	64.8%	17.2 ± 0.97 µg/mL (≈ 45.8 µM)	≥ 10 µg/mL	≥ 10 µg/mL	–	–	–	–	–	–	–	–	–	–	–
Cc1ccc(CN2CCC(C(=O)c3ccc(F)cc3)CC2)cc1 [Compound 6, [1-(4-methylbenzyl)piperidin-4-yl] [4-fluorophenyl] methanone]	13.6 ± 0.31 µg/mL (≈ 43.8 µM)	12.8 ± 3.21 µg/mL (≈ 40.9 µM)	37.1 ± 0.53 µg/mL (≈ 119 µM)	59.1%	19.1 ± 2.46 µg/mL (≈ 61.3 µM)	≥ 10 µg/mL	≥ 10 µg/mL	–	–	–	–	–	–	–	–	–	–	–
OC(c1ccc(F)cc1)C1CCN(Cc2ccc(F)cc2)CC1 (centres unmarked) [Compound 7, [1-(4-fluorobenzyl)piperidin-4-yl] [4-fluorophenyl] methanol]	4 ± 0.67 µg/mL (≈ 12.6 µM)	2.52 µg/mL (≈ 7.94 µM)	17.7 ± 4.34 µg/mL (≈ 55.8 µM)	81.3%	14.6 ± 1.52 µg/mL (≈ 46 µM)	–	–	375 µg/mL (≈ 1180 µM)	93.67	148.34	121.01 ± 38.7	active	active	–	–	–	–	–
OC(c1ccc(F)cc1)C1CCN(Cc2ccc(Cl)c(Cl)c2)CC1 (centres unmarked) [Compound 8, [1-(3,4-dichlorobenzyl)piperidin-4-yl] [4-fluorophenyl] methanol]	4.43 ± 0.32 µg/mL (≈ 12 µM)	1.3 µg/mL (≈ 3.53 µM)	17.3 ± 3.27 µg/mL (≈ 47.1 µM)	81.7%	13.9 ± 1.25 µg/mL (≈ 37.7 µM)	–	–	93.8 µg/mL (≈ 255 µM)	21.14	71.67	46.41 ± 35.7	active	active	–	–	–	–	–
OC(c1ccc(F)cc1)C1CCN(Cc2ccc(Cl)cc2)CC1 (centres unmarked) [Compound 9, [1-(4-chlorobenzyl)piperidin-4-yl] [4-fluorophenyl] methanol]	1.53 ± 0.24 µg/mL (≈ 4.58 µM)	1.67 ± 0.24 µg/mL (≈ 5 µM)	16.1 ± 2.13 µg/mL (≈ 48.2 µM)	93.2%	16.1 ± 2.13 µg/mL (≈ 48.2 µM)	–	–	250 µg/mL (≈ 749 µM)	–	–	156.25 ± 9.5	active	active	–	–	–	–	–
O=[N+]([O-])c1ccccc1CN1CCC(C(O)c2ccc(F)cc2)CC1 (centres unmarked) [Compound 10, [1-(2-nitrobenzyl)piperidin-4-yl] [4-fluorophenyl] methanol]	13.5 ± 0.54 µg/mL (≈ 39.3 µM)	14 ± 1.76 µg/mL (≈ 40.6 µM)	35.3 ± 2.02 µg/mL (≈ 102 µM)	79.7%	19.11 ± 0.02 µg/mL (≈ 55.5 µM)	≥ 10 µg/mL	≥ 10 µg/mL	–	–	–	–	–	–	–	–	–	–	–
OC(c1ccc(F)cc1)C1CCN(Cc2ccc(Br)cc2)CC1 (centres unmarked) [Compound 11, [1-(4-bromobenzyl)piperidin-4-yl] [4-fluorophenyl] methanol]	2.51 ± 0.3 µg/mL (≈ 6.64 µM)	1.03 µg/mL (≈ 2.72 µM)	27.8 ± 0.98 µg/mL (≈ 73.5 µM)	85.6%	16.8 ± 0.88 µg/mL (≈ 44.4 µM)	–	–	188 µg/mL (≈ 496 µM)	74.49	–	128.26 ± 76.1	active	active	–	–	–	–	–
Cc1ccc(CN2CCC(C(O)c3ccc(F)cc3)CC2)cc1 (centres unmarked) [Compound 12, [1-(4-methylbenzyl)piperidin-4-yl] [4-fluorophenyl] methanol]	3.37 ± 0.82 µg/mL (≈ 10.8 µM)	2.78 ± 0.09 µg/mL (≈ 8.87 µM)	10.2 ± 3.31 µg/mL (≈ 32.5 µM)	83.1%	15.7 µg/mL (≈ 50.2 µM)	–	–	188 µg/mL (≈ 598 µM)	55.52	67.39	61.46 ± 8.39	active	active	–	–	–	–	–
C=C[C@H]1C[N@@]2CC[C@H]1C[C@H]2[C@H](O)c1ccnc2ccc(OC)cc12 [QN, quinine, reference compound]	0.171 µg/mL (≈ 0.527 µM)	0.127 µg/mL (≈ 0.391 µM)	–	–	–	–	–	–	–	–	–	–	–	–	–	–	–	–
N-{[1-(4-bromobenzyl) piperidin-4-yl] [4-fluorophenyl] methyl}-3-bromobenzylamine [Compound 14]	–	–	–	–	–	–	–	–	163	–	–	active	active	86.0%	2.28 ± 0.64 µg/mL	11.31 ± 3.50 µg/mL	2.57 ± 1.64 µg/mL	16.21 ± 0.35 µg/mL
